{"source": "the supplement of paper PMC10307832", "assay_in_all_cases": "relative viability (nuclei count vs DMSO), 5 days (fraction); higher = more cells survive", "key": {"Ponatinib + Crizotinib": {"compound": "Cc1ccc(C(=O)Nc2ccc(CN3CCN(C)CC3)c(C(F)(F)F)c2)cc1C#Cc1cnc2cccnn12 [Ponatinib] + C[C@@H](Oc1cc(-c2cnn(C3CCNCC3)c2)cnc1N)c1c(Cl)ccc(F)c1Cl [Crizotinib] (partner 1 µM)", "summary_of_the_method": "(§1)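 Dosing by pin tool came one day after lung cancer cell lines were seeded in 1536-well plates, using either one drug or a fixed anchor-drug dose plus five library-drug doses (not always all listed) in √10 steps. After 5 days, nuclei were counted on 4× images. Relative viability is treated-well nuclei count divided by vehicle-well nuclei count, and values are medians of duplicate plates.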"}, "Pazopanib + Trametinib": {"compound": "Cc1ccc(Nc2nccc(N(C)c3ccc4c(C)n(C)nc4c3)n2)cc1S(N)(=O)=O [Pazopanib] + CC(=O)Nc1cccc(-n2c(=O)n(C3CC3)c(=O)c3c(Nc4ccc(I)cc4F)n(C)c(=O)c(C)c32)c1 [Trametinib] (partner 0.02 µM)", "summary_of_the_method": "as §1"}, "Pazopanib + Palbociclib": {"compound": "Cc1ccc(Nc2nccc(N(C)c3ccc4c(C)n(C)nc4c3)n2)cc1S(N)(=O)=O [Pazopanib] + CC(=O)c1c(C)c2cnc(Nc3ccc(N4CCNCC4)cn3)nc2n(C2CCCC2)c1=O [Palbociclib] (partner 0.5 µM)", "summary_of_the_method": "as §1"}, "Pazopanib + Vorinostat": {"compound": "Cc1ccc(Nc2nccc(N(C)c3ccc4c(C)n(C)nc4c3)n2)cc1S(N)(=O)=O [Pazopanib] + O=C(CCCCCCC(=O)Nc1ccccc1)NO [Vorinostat] (partner 1 µM)", "summary_of_the_method": "as §1"}}}
{"cell line": "UMC-11", "values": [{"measurement": "relative viability", "setting": "Ponatinib + Crizotinib; first compound 0.002 µM", "result": 0.678}, {"measurement": "relative viability", "setting": "Ponatinib + Crizotinib; first compound 0.006325 µM", "result": 0.603}, {"measurement": "relative viability", "setting": "Ponatinib + Crizotinib; first compound 0.06325 µM", "result": 0.786}, {"measurement": "relative viability", "setting": "Ponatinib + Crizotinib; first compound 0.2 µM", "result": 0.612}, {"measurement": "relative viability", "setting": "Pazopanib + Trametinib; first compound 0.01 µM", "result": 0.552}, {"measurement": "relative viability", "setting": "Pazopanib + Trametinib; first compound 0.03162 µM", "result": 0.732}, {"measurement": "relative viability", "setting": "Pazopanib + Trametinib; first compound 0.1 µM", "result": 0.672}, {"measurement": "relative viability", "setting": "Pazopanib + Trametinib; first compound 0.3162 µM", "result": 0.756}, {"measurement": "relative viability", "setting": "Pazopanib + Trametinib; first compound 1 µM", "result": 0.846}, {"measurement": "relative viability", "setting": "Pazopanib + Palbociclib; first compound 0.01 µM", "result": 0.305}, {"measurement": "relative viability", "setting": "Pazopanib + Palbociclib; first compound 0.03162 µM", "result": 0.347}, {"measurement": "relative viability", "setting": "Pazopanib + Palbociclib; first compound 0.1 µM", "result": 0.31}, {"measurement": "relative viability", "setting": "Pazopanib + Palbociclib; first compound 0.3162 µM", "result": 0.358}, {"measurement": "relative viability", "setting": "Pazopanib + Palbociclib; first compound 1 µM", "result": 0.32}, {"measurement": "relative viability", "setting": "Pazopanib + Vorinostat; first compound 0.01 µM", "result": 0.353}, {"measurement": "relative viability", "setting": "Pazopanib + Vorinostat; first compound 0.03162 µM", "result": 0.306}, {"measurement": "relative viability", "setting": "Pazopanib + Vorinostat; first compound 0.1 µM", "result": 0.368}, {"measurement": "relative viability", "setting": "Pazopanib + Vorinostat; first compound 0.3162 µM", "result": 0.371}, {"measurement": "relative viability", "setting": "Pazopanib + Vorinostat; first compound 1 µM", "result": 0.446}]}
